Measurements published in ChEMBL document CHEMBL5143618, “Design, synthesis, and antitumor activity evaluation of novel acyl sulfonamide spirodienones” (Bioorg Med Chem, 2022).
pIC50: −log10 of the molar value. Each block holds one compound with its values, some of them ahead of it. Activity calls are given as the source filed them. The rule behind the calls is not given here.

Tests used:
MDA-MB-231 [1] = assay: cells; type: functional, cell-based; settings: Homo sapiens, MDA-MB-231, 74 h
Description: Antiproliferative activity against human MDA-MB-231 cells assessed as inhibition of cell growth measured after 74 hrs by SRB assay

A549 = assay: cells; type: functional, cell-based; settings: Homo sapiens, A549, 74 h
Description: Antiproliferative activity against human A549 cells assessed as inhibition of cell growth measured after 74 hrs by SRB assay

HeLa = assay: cells; type: functional, cell-based; settings: Homo sapiens, 74 h
Description: Antiproliferative activity against human HeLa cells assessed as inhibition of cell growth measured after 74 hrs by SRB assay

HepG2 = assay: Antiproliferative activity against human HepG2 cells assessed as inhibition of cell growth measured after 74 hrs by SRB assay; type: functional, cell-based; settings: HepG2, 74 h
[2] = biological target: 72 kDa type IV collagenase (Homo sapiens, UniProt P08253); assay: Inhibition of MMP2 (unknown origin) using Mca-PLGLDpaAR fluorescent substrate incubated for 2 hrs by microplate reader method
Sequence of 72 kDa type IV collagenase (P08253 whole entry): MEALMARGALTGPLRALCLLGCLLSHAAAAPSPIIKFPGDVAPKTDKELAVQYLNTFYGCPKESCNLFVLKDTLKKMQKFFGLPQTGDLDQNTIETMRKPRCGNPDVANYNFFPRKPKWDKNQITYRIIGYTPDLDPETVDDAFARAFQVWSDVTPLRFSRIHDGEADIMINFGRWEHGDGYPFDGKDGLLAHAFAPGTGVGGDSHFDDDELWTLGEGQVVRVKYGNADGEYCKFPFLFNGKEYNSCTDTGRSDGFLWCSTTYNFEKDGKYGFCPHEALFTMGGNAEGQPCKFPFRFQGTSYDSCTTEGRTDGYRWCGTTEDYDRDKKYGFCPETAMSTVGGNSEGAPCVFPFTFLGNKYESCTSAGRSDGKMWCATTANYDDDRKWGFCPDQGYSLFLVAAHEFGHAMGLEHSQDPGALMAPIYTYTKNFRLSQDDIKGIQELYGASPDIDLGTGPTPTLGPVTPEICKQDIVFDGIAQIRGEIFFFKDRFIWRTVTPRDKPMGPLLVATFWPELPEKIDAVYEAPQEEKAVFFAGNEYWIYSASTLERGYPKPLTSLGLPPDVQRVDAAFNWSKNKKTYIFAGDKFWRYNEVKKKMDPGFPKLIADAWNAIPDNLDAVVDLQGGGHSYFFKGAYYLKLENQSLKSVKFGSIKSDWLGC

[3] = Acute toxicity in Kunming mouse assessed as mortality at 100 mg/kg, ip single dose; type: organism-based; settings: in vivo
MDA-MB-231 [4] = assay: Induction of apoptosis in human MDA-MB-231 cells assessed as necrotic cells at 10 uM incubated for 24 hrs by annexin V-FITC and PI staining based flow cytometry analysis (reference value: 0.68 %); type: functional
MDA-MB-231 [5] = assay: Induction of apoptosis in human MDA-MB-231 cells assessed as late apoptotic cells at 10 uM incubated for 24 hrs by annexin V-FITC and PI staining based flow cytometry analysis (reference value: 1.02 %); type: functional
MDA-MB-231 [6] = assay: Induction of apoptosis in human MDA-MB-231 cells assessed as early apoptotic cells at 10 uM incubated for 24 hrs by annexin V-FITC and PI staining based flow cytometry analysis (reference value: 4.66 %); type: functional
MDA-MB-231 [7] = assay: Induction of apoptosis in human MDA-MB-231 cells assessed as viable cells at 10 uM incubated for 24 hrs by annexin V-FITC and PI staining based flow cytometry analysis (reference value: 93.6 %); type: functional; settings: read-out: Activity
[8] = Acute toxicity in Kunming mouse assessed as mortality at 150 mg/kg, ip single dose; type: organism-based; settings: in vivo, read-out: Activity
[9] = Acute toxicity in Kunming mouse assessed as mortality at 200 mg/kg, ip single dose; type: organism-based; settings: in vivo, read-out: Activity
[10] = Acute toxicity in Kunming mouse assessed as mortality at 250 mg/kg, ip single dose; type: organism-based; settings: in vivo, read-out: Activity
[11] = Acute toxicity in female Kunming mouse assessed as drug tolerance at 100 to 250 mg/kg, ip single dose measured up to 2 weeks; type: organism-based; settings: in vivo, 336 h, dose 100-250 mg/kg
[12] = Acute toxicity in male Kunming mouse assessed as drug tolerance at 100 to 250 mg/kg, ip single dose measured up to 2 weeks; type: organism-based; settings: in vivo, 336 h, dose 100-250 mg/kg
[13] = Acute toxicity in female Kunming mouse assessed as body weight gain at 100 to 250 mg/kg, ip single dose measured up to 2 weeks; type: organism-based; settings: in vivo, 336 h, dose 100-250 mg/kg
[14] = Acute toxicity in male Kunming mouse assessed as body weight gain at 100 to 250 mg/kg, ip single dose measured up to 2 weeks; type: organism-based; settings: in vivo, 336 h, dose 100-250 mg/kg
[15] = Acute toxicity in female Kunming mouse assessed as clinical signs of toxicity in eyes at 100 to 250 mg/kg, ip single dose measured up to 2 weeks; type: organism-based; settings: in vivo, 336 h, dose 100-250 mg/kg
[16] = Acute toxicity in male Kunming mouse assessed as clinical signs of toxicity in eyes at 100 to 250 mg/kg, ip single dose measured up to 2 weeks; type: organism-based; settings: in vivo, 336 h, dose 100-250 mg/kg
[17] = Acute toxicity in female Kunming mouse assessed as clinical signs of toxicity in skin at 100 to 250 mg/kg, ip single dose measured up to 2 weeks; type: organism-based; settings: in vivo, 336 h, dose 100-250 mg/kg
[18] = Acute toxicity in male Kunming mouse assessed as clinical signs of toxicity in skin at 100 to 250 mg/kg, ip single dose measured up to 2 weeks; type: organism-based; settings: in vivo, 336 h, dose 100-250 mg/kg
[19] = Acute toxicity in female Kunming mouse assessed as clinical signs of toxicity in fur at 100 to 250 mg/kg, ip single dose measured up to 2 weeks; type: organism-based; settings: in vivo, 336 h, dose 100-250 mg/kg
[20] = Acute toxicity in male Kunming mouse assessed as clinical signs of toxicity in fur at 100 to 250 mg/kg, ip single dose measured up to 2 weeks; type: organism-based; settings: in vivo, 336 h, dose 100-250 mg/kg
[21] = Acute toxicity in Kunming mouse assessed as pathological changes in heart at 100 to 250 mg/kg, ip single dose by hematoxylin and eosin staining based assay; type: organism-based; settings: in vivo, dose 100-250 mg/kg
[22] = Acute toxicity in Kunming mouse assessed as pathological changes in liver at 100 to 250 mg/kg, ip single dose by hematoxylin and eosin staining based assay; type: organism-based; settings: in vivo, dose 100-250 mg/kg
[23] = Acute toxicity in Kunming mouse assessed as pathological changes in spleen at 100 to 250 mg/kg, ip single dose by hematoxylin and eosin staining based assay; type: organism-based; settings: in vivo, dose 100-250 mg/kg
[24] = Acute toxicity in Kunming mouse assessed as pathological changes in lung at 100 to 250 mg/kg, ip single dose by hematoxylin and eosin staining based assay; type: organism-based; settings: in vivo, dose 100-250 mg/kg
[25] = Acute toxicity in Kunming mouse assessed as pathological changes in kidney at 100 to 250 mg/kg, ip single dose by hematoxylin and eosin staining based assay; type: organism-based; settings: in vivo, dose 100-250 mg/kg
4T1 [26] = assay: Antitumor activity against mouse 4T1 cells inoculated orthotopic mouse assessed as reduction in tumor volume at 10 mg/kg, ip administered every day measured after 14 days (reference value: 623 mm3); type: functional; settings: time 14 day
4T1 [27] = assay: Antitumor activity against mouse 4T1 cells inoculated orthotopic mouse assessed as tumor growth inhibition ratio at 10 mg/kg, ip administered every day measured after 14 days; type: functional; parameters: scale not given: the % may be the effect or the level left; settings: time 14 day
[28] = Toxicity in orthotopic mouse inoculated with mouse 4T1 cells assessed as body weight loss at 10 mg/kg, ip administered every day measured after 14 days; type: organism-based; settings: in vivo, 336 h, time 14 day
[29] = Toxicity in orthotopic mouse inoculated with mouse 4T1 cells assessed as side effects at 10 mg/kg, ip administered every day measured after 14 days; type: organism-based; settings: in vivo, 336 h, time 14 day
[30] = Toxicity in orthotopic mouse inoculated with mouse 4T1 cells assessed as appearance of lesions in heart at 10 mg/kg, ip administered every day measured after 14 days by hematoxylin and eosin staining based assay; type: organism-based; settings: in vivo, 336 h, time 14 day
[31] = Toxicity in orthotopic mouse inoculated with mouse 4T1 cells assessed as appearance of lesions in liver at 10 mg/kg, ip administered every day measured after 14 days by hematoxylin and eosin staining based assay; type: organism-based; settings: in vivo, 336 h, time 14 day
[32] = Toxicity in orthotopic mouse inoculated with mouse 4T1 cells assessed as appearance of lesions in spleen at 10 mg/kg, ip administered every day measured after 14 days by hematoxylin and eosin staining based assay; type: organism-based; settings: in vivo, 336 h, time 14 day
[33] = Toxicity in orthotopic mouse inoculated with mouse 4T1 cells assessed as appearance of lesions in lung at 10 mg/kg, ip administered every day measured after 14 days by hematoxylin and eosin staining based assay; type: organism-based; settings: in vivo, 336 h, time 14 day
[34] = Toxicity in orthotopic mouse inoculated with mouse 4T1 cells assessed as appearance of lesions in kidney at 10 mg/kg, ip administered every day measured after 14 days by hematoxylin and eosin staining based assay; type: organism-based; settings: in vivo, 336 h, time 14 day
4T1 [35] = assay: Antitumor activity against mouse 4T1 cells inoculated orthotopic mouse assessed as apoptotic cells in tumor tissue by TUNEL assay (reference value: 3.13%); type: functional
MDA-MB-231 [36] = assay: Induction of cell cycle arrest in human MDA-MB-231 cells assessed as accumulation of cells in G1 phase at 10 uM incubated for 24 hrs by PI staining based flow cytometry analysis (reference value: 74.44 %); type: functional
MDA-MB-231 [37] = assay: Induction of cell cycle arrest in human MDA-MB-231 cells assessed as accumulation of cells in G2 phase at 10 uM incubated for 24 hrs by PI staining based flow cytometry analysis (reference value: 8.95 %); type: functional
MDA-MB-231 [38] = assay: Induction of cell cycle arrest in human MDA-MB-231 cells assessed as accumulation of cells in S phase at 10 uM incubated for 24 hrs by PI staining based flow cytometry analysis (reference value: 16.61 %); type: functional
MDA-MB-231 [39] = assay: Induction of cell cycle arrest in human MDA-MB-231 cells assessed as accumulation of cells in G2/G1 phase at 10 uM incubated for 24 hrs by PI staining based flow cytometry analysis (reference value: 1.80 %); type: functional
4T1 [40] = assay: Antitumor activity against mouse 4T1 cells inoculated orthotopic mouse assessed as change in gross appearance of tumor at 10 mg/kg, ip administered every day measured after 14 days; type: functional, organism-based; settings: time 14.0 day
4T1 [41] = assay: Antitumor activity against mouse 4T1 cells inoculated orthotopic mouse assessed as decrease in tumor weight at 10 mg/kg, ip administered every day measured after 14 days; type: functional, organism-based; settings: time 14.0 day

SMILES: CS(=O)(=O)N1C(=O)COC12C=CC(=O)C=C2
pIC50 (MDA-MB-231 [1]): < 5.00
pIC50 (A549): < 5.00
pIC50 (HeLa): 5.12
pIC50 (HepG2): < 5.00

SMILES: O=C1C=CC2(C=C1)OCC(=O)N2S(=O)(=O)c1ccccc1
pIC50 (MDA-MB-231 [1]): < 5.00
pIC50 (A549): < 5.00
pIC50 (HeLa): < 5.00
pIC50 (HepG2): < 5.00

SMILES: COc1ccc(S(=O)(=O)N(CC(=O)NO)CC(C)C)cc1
pIC50 [2]: 9.23

SMILES: Cc1ccc(S(=O)(=O)N2C(=O)COC23C=CC(=O)C=C3)cc1
pIC50 (MDA-MB-231 [1]): 7.15
pIC50 (A549): 6.96
Activity [3]: Non-Toxic
pIC50 (HeLa): 6.74
pIC50 (HepG2): < 5.00
Activity (MDA-MB-231 [4]): 0.72%
Activity (MDA-MB-231 [5]): 3%
Activity (MDA-MB-231 [6]): 10.9%
viability at 10 µM (MDA-MB-231 [7]): 85.4%
mortality [8]: 30%
mortality [9]: 50%
mortality [10]: 60%
Activity [11]: Non-Toxic
Activity [12]: Non-Toxic
Activity [13]: Non-Toxic
Activity [14]: Non-Toxic
Activity [15]: Non-Toxic
Activity [16]: Non-Toxic
Activity [17]: Non-Toxic
Activity [18]: Non-Toxic
Activity [19]: Non-Toxic
Activity [20]: Non-Toxic
Activity [21]: Non-Toxic
Activity [22]: Non-Toxic
Activity [23]: Non-Toxic
Activity [24]: Non-Toxic
Activity [25]: Non-Toxic
Activity (4T1 [26]): 376 mm3
Activity (4T1 [27]): 39%
Activity [28]: Non-Toxic
Activity [29]: Non-Toxic
Activity [30]: Non-Toxic
Activity [31]: Non-Toxic
Activity [32]: Non-Toxic
Activity [33]: Non-Toxic
Activity [34]: Non-Toxic
Activity (4T1 [35]): 95.64%
Activity (MDA-MB-231 [36]): 65.65%
Activity (MDA-MB-231 [37]): 10.29%
Activity (MDA-MB-231 [38]): 24.06%
Activity (MDA-MB-231 [39]): 1.8%
Activity (4T1 [40]): Active
Activity (4T1 [41]): Active

SMILES: O=C1C=CC2(C=C1)OCC(=O)N2S(=O)(=O)c1cccs1
pIC50 (MDA-MB-231 [1]): 7.70
pIC50 (A549): < 5.00
pIC50 (HeLa): 5.47
pIC50 (HepG2): < 5.00

SMILES: O=C1C=CC2(C=C1)OCC(=O)N2S(=O)(=O)c1ccccc1OC(F)(F)F
pIC50 (MDA-MB-231 [1]): < 5.00
pIC50 (A549): < 5.00
pIC50 (HeLa): 6.85
pIC50 (HepG2): < 5.00

The remaining lines, values ahead:

pIC50 (MDA-MB-231 [1]): 5.96
pIC50 (A549): < 5.00
pIC50 (HeLa): < 5.00
pIC50 (HepG2): 6.27
SMILES: Cc1ccc(S(=O)(=O)N2C(=O)C(C)OC23C=CC(=O)C=C3)cc1 (configuration not stated)

pIC50 (HepG2): 7.89
SMILES: CC(=O)O[C@H]1C(=O)[C@@]2(C)[C@H]([C@H](OC(=O)c3ccccc3)[C@]3(O)C[C@H](OC(=O)[C@H](O)[C@@H](NC(=O)c4ccccc4)c4ccccc4)C(C)=C1C3(C)C)[C@]1(OC(C)=O)CO[C@@H]1C[C@@H]2O [PACLITAXEL]

pIC50 (MDA-MB-231 [1]): < 5.00
pIC50 (A549): < 5.00
pIC50 (HeLa): 6.06
pIC50 (HepG2): 5.79
SMILES: COc1ccc(S(=O)(=O)N2C(=O)COC23C=CC(=O)C=C3)cc1

pIC50 (MDA-MB-231 [1]): < 5.00
pIC50 (A549): < 5.00
pIC50 (HeLa): 7.70
pIC50 (HepG2): 6.23
SMILES: O=C1C=CC2(C=C1)OCC(=O)N2S(=O)(=O)c1ccccc1C(F)(F)F

pIC50 (MDA-MB-231 [1]): < 5.00
pIC50 (A549): < 5.00
pIC50 (HeLa): 5.43
pIC50 (HepG2): 6.12
SMILES: Cc1ccccc1S(=O)(=O)N1C(=O)COC12C=CC(=O)C=C2
